# Measured values as given in patent US7118872B2, “Binding polypeptides for B lymphocyte stimulator protein (BLyS)” (priority 2000, dated 2006).
# Positions of bridges follow the written chain, without caps; N, C: chain ends. Residues, ends and D or L forms follow the SMILES beside them. No end group written: not given here.
# Target: BLyS (Homo sapiens, UniProt Q9Y275)
# Assay: Chromatographic screening of immobilized BLyS binding polypeptides (affinity media)
# Details: peptide immobilized on SEPHAROSE 4 Fast Flow
# Procedure: A reversed phase analytical assay was used in the assessment of the chromatographic performance of the six affinity media.
# All columns were tested at 200 μl/min (170 cm/hr) using a Watson/Marlow 101 ru peristaltic pump. This setup allowed free use of numerous wash, protein and elution conditions. Detection was made using a Waters 2487 UV/VIS detector at 214 nm and 280 nm connected to a Waters Millennium workstation.
# The columns were then tested with an array of possible elution conditions and monitored at 214 nm and 280 nm for release of BLyS. Fractions indicating possible BLyS elution based on UV absorbance were collected and analyzed by reversed phase chromatography for confirmation.
# Sequence of BLyS (Q9Y275 134-285 limits assumed): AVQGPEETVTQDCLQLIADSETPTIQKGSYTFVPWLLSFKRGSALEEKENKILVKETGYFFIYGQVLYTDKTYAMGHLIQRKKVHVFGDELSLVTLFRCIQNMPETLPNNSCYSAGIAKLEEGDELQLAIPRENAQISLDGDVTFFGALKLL
row,Molecule,release of BLyS from affinity media (elution condition)
1,CC(=O)N[C@@H](C)C(=O)NCC(=O)N[C@@H](CCCCN)C(=O)N[C@@H](CCC(=O)O)C(=O)N1CCC[C@H]1C(=O)N[C@H]1CSSC[C@@H](C(=O)N[C@@H](C)C(=O)N[C@H](C(=O)N[C@@H](CO)C(=O)NCC(=O)N2CCC[C@H]2C(=O)NCC(=O)N2CCC[C@H]2C(=O)N[C@@H](CCC(=O)O)C(=O)NCC(=O)NCC(=O)NCC(=O)N[C@@H](CCCCN)C(=O)O)C(C)C)NC(=O)[C@H](CCC(=O)O)NC(=O)[C@H](Cc2c[nH]c3ccccc23)NC(=O)[C@H](Cc2ccc(O)cc2)NC(=O)[C@H](Cc2ccccc2)NC(=O)[C@H](Cc2ccc(O)cc2)NC1=O [DX212] (Ac-AGKEPCYFYWECAVSGPGPEGGGK-OH; disulfide 6-12; C-terminus assumed),"released BLyS with good recoveries on elution with 50% ethylene glycol, pH 4"
2,CC(=O)N[C@@H](C)C(=O)NCC(=O)N[C@H](C(=O)N1CCC[C@H]1C(=O)N[C@@H](Cc1ccccc1)C(=O)N[C@H]1CSSC[C@@H](C(=O)N[C@@H](Cc2ccccc2)C(=O)N[C@@H](CCC(=O)O)C(=O)N[C@@H](C)C(=O)NCC(=O)N2CCC[C@H]2C(=O)NCC(=O)N2CCC[C@H]2C(=O)N[C@@H](CCC(=O)O)C(=O)NCC(=O)NCC(=O)NCC(=O)N[C@@H](CCCCN)C(=O)O)NC(=O)[C@H](Cc2c[nH]cn2)NC(=O)[C@H](CCCCN)NC(=O)[C@H]([C@@H](C)O)NC(=O)[C@H](CC(C)C)NC(=O)[C@H](CC(C)C)NC(=O)[C@H](CC(=O)O)NC1=O)C(C)C [DX214] (Ac-AGVPFCDLLTKHCFEAGPGPEGGGK-OH; disulfide 6-13; C-terminus assumed),would only release BLyS in the presence of pH 2 buffer
3,CSCC[C@@H]1NC(=O)[C@H](Cc2c[nH]cn2)NC(=O)[C@@H](NC(=O)[C@H](CC(C)C)NC(=O)[C@H](CCCNC(=N)N)NC(=O)[C@H](CO)NC(=O)[C@H](CO)NC(=O)CNC(C)=O)CSSC[C@@H](C(=O)N[C@H](C(=O)N[C@@H](Cc2c[nH]cn2)C(=O)N[C@@H](Cc2ccccc2)C(=O)N[C@@H](C)C(=O)N2CCC[C@H]2C(=O)N2CCC[C@H]2C(=O)NCC(=O)N2CCC[C@H]2C(=O)N[C@@H](CCC(=O)O)C(=O)NCC(=O)NCC(=O)NCC(=O)N[C@@H](CCCCN)C(=O)O)C(C)C)NC(=O)[C@H](C(C)C)NC(=O)[C@H](Cc2c[nH]cn2)NC(=O)[C@H]([C@@H](C)O)NC(=O)[C@H](CC(C)C)NC(=O)[C@H](CCC(=O)O)NC(=O)[C@H](CC(=O)O)NC1=O [DX216] (Ac-GSSRLCHMDELTHVCVHFAPPGPEGGGK-OH; disulfide 6-15; C-terminus assumed),would only release BLyS in the presence of pH 2 buffer
4,CSCC[C@H](NC(=O)[C@@H]1CSSC[C@H](NC(=O)[C@H](CC(N)=O)NC(=O)CNC(=O)CNC(=O)[C@H](CC(=O)O)NC(=O)CNC(C)=O)C(=O)N[C@@H](Cc2ccc(O)cc2)C(=O)N[C@@H]([C@@H](C)O)C(=O)N[C@@H](CC(=O)O)C(=O)N[C@@H](CO)C(=O)N[C@@H](CC(C)C)C(=O)N[C@@H]([C@@H](C)O)C(=O)N[C@@H](CCCCN)C(=O)N[C@@H](CC(C)C)C(=O)N[C@@H](Cc2c[nH]cn2)C(=O)N[C@@H](Cc2ccccc2)C(=O)N1)C(=O)NCC(=O)N[C@@H](CC(=O)O)C(=O)N[C@@H](CCC(=O)O)C(=O)N1CCC[C@H]1C(=O)NCC(=O)N1CCC[C@H]1C(=O)N[C@@H](CCC(=O)O)C(=O)NCC(=O)NCC(=O)NCC(=O)N[C@@H](CCCCN)C(=O)O [DX217] (Ac-GDGGNCYTDSLTKLHFCMGDEPGPEGGGK-OH; disulfide 6-17; C-terminus assumed),would only release BLyS in the presence of pH 2 buffer
5,Ac-GYDVLTKLYFVPGGPGPEGGGK [DX219],would only release BLyS in the presence of pH 2 buffer
6,Ac-WTDSLTGLWFPDGGPGPEGGGK [DX221],would only release BLyS in the presence of pH 2 buffer
